Laboratory results taken from ChEMBL document CHEMBL1139004, “SAR and inhibitor complex structure determination of a novel class of potent and specific Aurora kinase inhibitors” (Bioorg Med Chem Lett, 2006).
≈ marks a conversion by molar mass, not a printed value.

Assays:
[1] = Percent of unbound ligand in rat plasma; type: ADME, organism-based
[2] = Aqueous solubility of the compound
MCF7 = assay: Antiproliferative activity against MCF7 cell line; type: functional, cell-based; details: Homo sapiens
Aurora kinase A = target: T1, Aurora kinase A (Homo sapiens, UniProt O14965); assay: Inhibitory activity against Aurora A
T1 sequence (O14965 whole entry): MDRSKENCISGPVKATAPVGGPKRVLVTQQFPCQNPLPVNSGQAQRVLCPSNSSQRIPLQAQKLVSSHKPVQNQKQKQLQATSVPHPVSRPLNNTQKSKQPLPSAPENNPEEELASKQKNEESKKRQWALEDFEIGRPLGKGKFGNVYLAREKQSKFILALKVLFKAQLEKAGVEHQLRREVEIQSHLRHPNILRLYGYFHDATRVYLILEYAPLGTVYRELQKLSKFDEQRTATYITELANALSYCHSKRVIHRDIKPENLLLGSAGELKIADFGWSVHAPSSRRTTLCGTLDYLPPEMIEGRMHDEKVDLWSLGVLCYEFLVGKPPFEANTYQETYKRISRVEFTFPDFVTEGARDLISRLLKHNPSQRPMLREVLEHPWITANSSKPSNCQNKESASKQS

[3] = Distribution coefficient of the compound, log D at pH 7.4; type: physicochemical; details: octanol/water

SMILES	fraction unbound [1]	solubility [2]	IC50 (MCF7)	IC50 (Aurora kinase A)	logD [3]
COc1cc2c(Nc3ccc(NC(=O)c4ccccc4)cc3)ncnc2cc1OCCCN1CCOCC1	0.003	2.5 µM (≈ 1.28 µg/mL)	198 nM	–	–
COc1cc2c(Nc3cnc(NC(=O)c4ccc(C)c(Br)c4)nc3)ncnc2cc1OCCCN1CCOCC1	–	–	–	70 nM	–
COc1cc2c(Nc3cnc(NC(=O)c4ccncc4)nc3)ncnc2cc1OCCCN1CCOCC1	–	–	–	690 nM	–
COc1cc2c(Nc3cnc(NC(=O)c4cccc(Cl)c4)nc3)ncnc2cc1OCCCN1CCCCC1	–	3600 µM (≈ 1970 µg/mL)	24 nM	0.8 nM	–
CCc1ccc(C(=O)Nc2ncc(Nc3ncnc4cc(OCCCN5CCOCC5)c(OC)cc34)cn2)cc1	–	–	–	85 nM	–
CCCCC(=O)Nc1ncc(Nc2ncnc3cc(OCCCN4CCOCC4)c(OC)cc23)cn1	–	–	–	17 nM	–
COc1cc2c(Nc3cnc(NC(=O)c4cccc(Cl)c4)nc3)ncnc2cc1OCCCN1CCOCC1	–	–	80 nM	< 0.1 nM	–
COc1cc2c(Nc3ncc(NC(=O)c4ccccc4)cn3)ncnc2cc1OCCCN1CCOCC1	–	–	–	629 nM	–
CCCN(CCC)S(=O)(=O)c1ccc(C(=O)Nc2ncc(Nc3ncnc4cc(OCCCN5CCOCC5)c(OC)cc34)cn2)cc1	–	–	–	3900 nM	–
COc1cc2c(Nc3cnc(NC(=O)c4ccccc4)nc3)ncnc2cc1OCCCN1CCOCC1	0.045	–	210 nM	3 nM	2.7
COc1cc2c(Nc3cnc(NC(=O)c4ccc(F)c(Cl)c4)nc3)ncnc2cc1OCCCN1CCOCC1	0.004	–	20 nM	0.15 nM	–
COc1cc2c(Nc3cnc(NC(=O)c4ccccc4)nc3)ncnc2cc1OC[C@@H](O)CN1CCCCC1	–	1500 µM (≈ 794 µg/mL)	–	–	–
COc1cc2ncnc(Nc3ccc(NC(=O)c4ccccc4)cc3)c2cc1OC [ANILINOQUINAZOLINE1]	–	–	1250 nM	393 nM	3.7
